Results on 25 molecules are retold here after US10752588B2 (The Broad Institute, Inc., priority 2014, dated 2020).

Each structure is given as a SMILES string.

Experiment [1] concerns the target T1, human D2R/β-arrestin (Homo sapiens (Human), UniProt P14416). Put plainly: cell-based. The note with it: cAMP Antagonist, CHO-K1 cell line expressing human D2R/β-arrestin; quinpirole used as agonist.
Experiment [2] has as its target T1, human D2R/β-arrestin. Put plainly: β-Arrestin agonist assay (PathHunter). To be noted: CHO-K1 cell line expressing human D2R/β-arrestin. The experiment is classed as cell-based. A digest of the protocol:
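After compound incubation, detection reagent (Buffer:Emerald II:Galactor-Star, 19:5:1) added and luminescence or fluorescence read.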

Experiment [3] concerns the target T1, human D2R/β-arrestin. Put plainly: Gi/cAMP agonist assay (Lance Ultra cAMP, Forskolin). The experiment is classed as cell-based. The note with it: CHO-K1 cell line expressing human D2R/β-arrestin. The gist of the method:
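Cells were plated and incubated before compounds were pin-transferred and incubated for 10 min at 37 °C. Forskolin was then added to stimulate cAMP. cAMP was detected by Lance Ultra TR-FRET using Eu-cAMP tracer and ULight-anti-cAMP antibody.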

For experiment [4], the target named is T1, human D2R/β-arrestin. Put plainly: cell-based. To be noted: β-arrestin Antagonist, CHO-K1 cell line expressing human D2R/β-arrestin; quinpirole used as agonist.

T1 sequence (P14416 whole entry): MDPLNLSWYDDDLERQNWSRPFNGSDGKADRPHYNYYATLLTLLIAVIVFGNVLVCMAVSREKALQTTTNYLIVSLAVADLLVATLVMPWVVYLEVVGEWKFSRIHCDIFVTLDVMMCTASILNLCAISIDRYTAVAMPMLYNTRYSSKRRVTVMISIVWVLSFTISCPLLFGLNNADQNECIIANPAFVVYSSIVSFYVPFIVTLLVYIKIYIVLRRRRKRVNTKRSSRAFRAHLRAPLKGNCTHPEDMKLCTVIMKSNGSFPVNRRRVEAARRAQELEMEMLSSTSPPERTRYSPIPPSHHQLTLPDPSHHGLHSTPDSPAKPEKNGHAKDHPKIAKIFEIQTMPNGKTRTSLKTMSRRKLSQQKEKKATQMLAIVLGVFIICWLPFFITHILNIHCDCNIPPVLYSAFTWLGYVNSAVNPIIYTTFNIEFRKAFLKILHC

A word on the IC50: it is the point on the concentration scale where inhibition reaches its midpoint. High values mean weaker potency, low ones greater potency. The EC50 is the concentration at which the effect is half-maximal. A low value points to a more potent agent. For the molecule `O=C(NC(c1ccc(F)cc1)c1ccccc1F)C1CCN(CCOc2ccccc2)CC1` (stereo not shown) [Compound 49, N-((2-fluorophenyl)(4-fluorophenyl)methyl)-1-(2-phenoxyethyl)piperidine-4-carboxamide], the IC50 in experiment [1] fell in the range of 1 to 10 µM; in experiment [4], 0.1 to 1 µM. Further, the EC50 is greater than 30 µM in experiment [2] and 1 to 10 µM in experiment [3].

As for `COc1cccc(C(NC(=O)C2CCN(CCOc3ccccc3)CC2)c2ccccc2F)c1` (stereo not shown) [Compound 50], the values for the IC50 in experiment [1] and in experiment [4] were greater than 30 µM and 1 to 10 µM, respectively. Also, the EC50 was greater than 30 µM in experiment [2] and 0.1 to 1 µM in experiment [3].

For `O=C(NC(c1ccc(F)cc1)c1ccccn1)C1CCN(CCOc2ccc3ncsc3c2)CC1` (stereo not shown) [Compound 55, 1-(2-(benzo[d]thiazol-6-yloxy)ethyl)-N-((4-fluorophenyl)(pyridin-2-yl)methyl)piperidine-4-carboxamide], the IC50 in experiment [1] and in experiment [4] was 1 to 10 µM throughout. Besides, the EC50 in experiment [2] and in experiment [3] was greater than 30 µM each time.

For `O=C(NC(c1ccc(F)cc1)c1ccccn1)C1CCN(CCOc2c(F)cccc2F)CC1` (stereo not shown) [Compound 56, 1-(2-(2,6-difluorophenoxy)ethyl)-N-((4-fluorophenyl)(pyridin-2-yl)methyl) piperidine-4-carboxamide], the IC50 in experiment [1] and in experiment [4] was 0.1 to 1 µM in each case. Further, the EC50 in experiment [2] and in experiment [3] was greater than 30 µM in each case.

For `O=C(NC(c1ccc(F)cc1)c1ccccn1)C1CCN(CCOc2cc(F)ccc2F)CC1` (stereo not shown) [Compound 57, 1-(2-(2,5-difluorophenoxy)ethyl)-N-((4-fluorophenyl)(pyridin-2-yl)methyl) piperidine-4-carboxamide], the results for the IC50 in experiment [1] and in experiment [4] were greater than 30 µM and 0.1 to 1 µM, respectively. In addition, the EC50 in experiment [2] was greater than 30 µM; in experiment [3], 0.1 to 1 µM.

In the case of `CC(C)(COc1ccccc1)N1CCC(C(=O)NC(c2ccc(F)cc2)c2ccccn2)CC1` (stereo not shown) [Compound 58], the IC50 in experiment [1] and in experiment [4] was 10 to 30 µM in each case. The EC50 in experiment [2] and in experiment [3] was greater than 30 µM each time.

With `O=C(NC(c1ccc(F)cc1)c1ccccn1)C1CCN(Cc2cc3ccccc3o2)CC1` (stereo not shown) [Compound 59], the results for the half-inhibitory concentration (IC50) in experiment [1] and in experiment [4] were 10 to 30 µM and greater than 30 µM, respectively. Moreover, the EC50 in experiment [2] and in experiment [3] was greater than 30 µM throughout.

For `O=C(NC(c1ccc(F)cc1)c1ccccn1)C1CCN(Cc2nc3ccccc3o2)CC1` (stereo not shown) [Compound 60, 1-(benzo[d]oxazol-2-ylmethyl)-N-((4-fluorophenyl)(pyridin-2-yl)methyl)piperidine-4-carboxamide], the IC50 in experiment [1] and in experiment [4] was greater than 30 µM in each case. Moreover, the EC50 in experiment [2] and in experiment [3] was greater than 30 µM throughout.

On to `O=C(NC(c1ccc(F)cc1)c1ccccn1)C1CCN(CC2Cc3ccccc3C2)CC1` (stereo not shown) [Compound 61, 1-((2,3-dihydro-1H-inden-2-yl)methyl)-N-((4-fluorophenyl)(pyridin-2-yl)methyl)piperidine-4-carboxamide], for which the IC50 in experiment [1] and in experiment [4] was 10 to 30 µM in each case. Besides, the EC50 in experiment [2] and in experiment [3] was greater than 30 µM in each case.

For `O=C(NC(c1ccc(Cl)cc1)c1ccccn1)C1CCN(CCCOc2ccccc2)CC1` (stereo not shown) [Compound 62, N-((4-chlorophenyl)(pyridin-2-yl)methyl)-1-(3-phenoxypropyl)piperidine-4-carboxamide], the values for the IC50 in experiment [1] and in experiment [4] were 0.1 to 1 µM and 1 to 10 µM, respectively. Further, the EC50 in experiment [2] and in experiment [3] was greater than 30 µM throughout.

For the molecule `CN1CCC(C(=O)NC(c2ccc(Cl)cc2)c2ccccn2)CC1` (stereo not shown) [Compound 64, N-((4-chlorophenyl)(pyridin-2-yl)methyl)-1-methylpiperidine-4-carboxamide], the 50% inhibitory concentration (IC50) in experiment [1] was in the range of 1 to 10 µM; in experiment [4], 10 to 30 µM. Moreover, the EC50 in experiment [2] and in experiment [3] was greater than 30 µM each time.

For the molecule `COCCN1CCC(C(=O)NC(c2ccc(Cl)cc2)c2ccccn2)CC1` (stereo not shown) [Compound 65, N-((4-chlorophenyl)(pyridin-2-yl)methyl)-1-(2-methoxyethyl)piperidine-4-carboxamide], the IC50 lay in the range of 1 to 10 µM in experiment [1] and 10 to 30 µM in experiment [4]. Also, the EC50 in experiment [2] and in experiment [3] was greater than 30 µM each time.

Turning to `O=C(NC(c1ccc(Cl)cc1)c1ccccn1)C1CCN(CCOc2c(F)cccc2F)CC1` (stereo not shown) [Compound 67, N-((4-chlorophenyl)(pyridin-2-yl)methyl)-1-(2-(2,6-difluorophenoxy)ethyl)piperidine-4-carboxamide], the values for the IC50 in experiment [1] and in experiment [4] were less than 0.1 µM and 0.1 to 1 µM, respectively. Also, the EC50 in experiment [2] and in experiment [3] was greater than 30 µM throughout.

As to `O=C(NC(c1ccc(Cl)cc1)c1ccccn1)C1CCN(CCOc2ccccc2OC(F)(F)F)CC1` (stereo not shown) [Compound 68, N-((4-chlorophenyl)(pyridin-2-yl)methyl)-1-(2-(2-(trifluoromethoxy)phenoxy)ethyl) piperidine-4-carboxamide], the IC50 in experiment [1] and in experiment [4] was less than 0.1 µM in each case. The EC50 in experiment [2] and in experiment [3] was greater than 30 µM in each case.

Turning to `CC1(C(=O)NC(c2ccc(F)cc2)c2ccccn2)CCN(CCOc2ccccc2)CC1` (stereo not shown) [Compound 69, N-((4-fluorophenyl)(pyridin-2-yl)methyl)-4-methyl-1-(2-phenoxyethyl)piperidine-4-carboxamide], the figures for the half-maximal inhibitory concentration (IC50) in experiment [1] and in experiment [4] were greater than 30 µM and 0.1 to 1 µM, respectively. Moreover, the EC50 in experiment [2] was 0.1 to 1 µM; in experiment [3], less than 0.1 µM.

Consider `CC1(C(=O)NC(c2ccc(F)cc2)c2ccccn2)CCN(CCOc2ccccc2C(F)(F)F)CC1` (stereo not shown) [Compound 70, N-((4-fluorophenyl)(pyridin-2-yl)methyl)-4-methyl-1-(2-(2-(trifluoromethyl)phenoxy)ethyl) piperidine-4-carboxamide], for which the IC50 in experiment [1] and in experiment [4] was 0.1 to 1 µM in each case. Moreover, the values for the EC50 in experiment [2] and in experiment [3] were greater than 30 µM and 0.1 to 1 µM, respectively.

Turning to `CC1(C(=O)NC(c2ccc(F)cc2)c2ccccn2)CCN(CCOc2ccccc2F)CC1` (stereo not shown) [Compound 71, 1-(2-(2-fluorophenoxy)ethyl)-N-((4-fluorophenyl)(pyridin-2-yl)methyl)-4-methylpiperidine-4-carboxamide], the figures for the IC50 in experiment [1] and in experiment [4] were greater than 30 µM and 0.1 to 1 µM, respectively. For the same molecule, the EC50 in experiment [2] and in experiment [3] was less than 0.1 µM in each case.

As for `CN(CC1CCN(CCOc2ccccc2C(F)(F)F)CC1)C(c1ccc(Cl)cc1)c1ccccn1` (stereo not shown) [Compound 73], the 50% inhibitory concentration (IC50) in experiment [1] and in experiment [4] was less than 0.1 µM throughout. Besides, the EC50 in experiment [2] and in experiment [3] was greater than 30 µM in each case.

Turning to `CN(CC1CCN(CCOc2ccccc2)CC1)C(c1ccc(F)cc1)c1ccccn1` (stereo not shown) [Compound 74, 1-(4-fluorophenyl)-N-methyl-N-((1-(2-phenoxyethyl)piperidin-4-yl)methyl)-1-(pyridin-2-yl)methanamine], the IC50 in experiment [1] and in experiment [4] was 0.1 to 1 µM throughout. Moreover, the 50% effective concentration (EC50) in experiment [2] was greater than 30 µM; in experiment [3] it was less than 0.1 µM.

With `CN(CC1CCN(CCOc2ccccc2F)CC1)C(c1ccc(F)cc1)c1ccccn1` (stereo not shown) [Compound 75, N-((1-(2-(2-fluorophenoxy)ethyl)piperidin-4-yl)methyl)-1-(4-fluorophenyl)-N-methyl-1-(pyridin-2-yl)methanamine], the IC50 in experiment [1] and in experiment [4] was 0.1 to 1 µM throughout. In addition, the results for the EC50 in experiment [2] and in experiment [3] were greater than 30 µM and less than 0.1 µM, respectively.

For the molecule `COc1cccc(C(c2ccccn2)N(C)CC2CCN(CCOc3ccccc3)CC2)c1` (stereo not shown) [Compound 76, 1-(3-methoxyphenyl)-N-methyl-N-((1-(2-phenoxyethyl)piperidin-4-yl)methyl)-1-(pyridin-2-yl)methanamine], the IC50 was 10 to 30 µM in experiment [1] and 1 to 10 µM in experiment [4]. Moreover, the EC50 in experiment [2] was greater than 30 µM; in experiment [3] it was less than 0.1 µM.

For the molecule `COc1cccc(C(c2ccccn2)N(C)CC2CCN(CCOc3ccccc3F)CC2)c1` (stereo not shown) [Compound 77, N-((1-(2-(2-fluorophenoxy)ethyl)piperidin-4-yl)methyl)-1-(3-methoxyphenyl)-N-methyl-1-(pyridin-2-yl)methanamine], the values for the IC50 in experiment [1] and in experiment [4] were 1 to 10 µM and 0.1 to 1 µM, respectively. In addition, the EC50 in experiment [2] was greater than 30 µM; in experiment [3] it was less than 0.1 µM.

For the molecule `Fc1ccc(C(NCC2CCN(CCOc3ccccc3)CC2)c2ccccn2)cc1` (stereo not shown) [Compound 78, 1-(4-fluorophenyl)-N-((1-(2-phenoxyethyl)piperidin-4-yl)methyl)-1-(pyridin-2-yl)methanamine], the IC50 in experiment [1] and in experiment [4] was 1 to 10 µM throughout. Also, the EC50 in experiment [2] was greater than 30 µM; in experiment [3], 0.1 to 1 µM.

As to `COc1cccc(C(NCC2CCN(CCOc3ccccc3)CC2)c2ccccn2)c1` (stereo not shown) [Compound 80, 1-(3-methoxyphenyl)-N-((1-(2-phenoxyethyl)piperidin-4-yl)methyl)-1-(pyridin-2-yl)methanamine], the IC50 in experiment [1] and in experiment [4] was 1 to 10 µM each time. Besides, the EC50 was greater than 30 µM in experiment [2] and 0.1 to 1 µM in experiment [3].

Consider `Fc1ccccc1C(NCC1CCN(CCOc2ccccc2)CC1)c1ccc(Cl)cc1` (stereo not shown) [Compound 81, 1-(4-chlorophenyl)-1-(2-fluorophenyl)-N-((1-(2-phenoxyethyl)piperidin-4-yl)methyl)methanamine], for which the IC50 in experiment [1] and in experiment [4] was 0.1 to 1 µM throughout. The concentration giving a half-maximal response (EC50) in experiment [2] and in experiment [3] was greater than 30 µM each time.
